Measured values taken from ChEMBL document CHEMBL3507680, “University of Dundee, Gates Library screen for HepG2 cell viability”.

Experiment: Human HepG2 cell viability assay in 384 well format
Format: toxicity, cell-based
Set-up: dose 125 nL, time 70.5 hour; cytotoxicity at 70.5 h: concentration not given beside the values
Details: HepG2 cells, read-out: Inhibition

SMILES | cytotoxicity at 70.5 h [%]
CC[C@H]1CN2CC[C@H]1C[C@@H]2CNCc1ccc(OC(F)(F)F)cc1 | -7.22
CN(C)[C@H]1C[C@@H](Cc2cc(-c3ccc(F)cc3)on2)C1(C)C | -0.292
COc1ccc(CN2C[C@@H]3OCC(=O)N(CC(N)=O)[C@@H]3C2)cc1 | 2.86
O=C(c1cccnc1)N1C[C@@H]2OCC(=O)N(Cc3cccnc3)[C@@H]2C1 | -3.03
CC(C)NC(=O)NC[C@H]1C[C@@H]2CCN1C[C@@H]2CN(C)c1ccccc1 | -0.173
Cc1nn(-c2ccccn2)c(C)c1[C@@H]1C=C[C@@H](NC(=O)NC(C)C)C1 | 0.445
CCNC(=O)N1C[C@@H]2OCC(=O)N(Cc3cccnc3)[C@@H]2C1 | -1.41
CC(=O)Nc1ccc([C@@H](O)[C@H]2COCC(=O)N2CC(C)C)cc1 | 1.58
COCC(=O)Nc1ccc([C@@H](O)[C@H]2COCC(=O)N2C)cc1 | -1.45
COC(=O)[C@H]1CN(C(=O)NC(C)C)CCN1C(=O)C1CCCCC1 | 10.7
CC(C)C[C@@H]1N[C@H](C(=O)NCC2CC2)Cc2c[nH]c3cccc1c23 | 0.485
CC(C)(C)C(=O)N[C@H]1C[C@@H](Cc2cc(CN3CCOCC3)on2)C1(C)C | -6.62
CC(=O)N[C@H]1C[C@@H](c2nc(-c3ccc4c(c3)OCO4)no2)N(C)C1 | 2.89
Cc1ccc(S(=O)(=O)Cc2noc([C@@H]3C[C@@H](O)CN3C)n2)cc1 | -2.56
c1ccc(-c2nnc([C@H]3CCN(C4CCC4)C3)o2)cc1 | 0.134
COc1ccccc1CN1CC[C@H](c2nnc(-c3cncn3C)o2)C1 | -1.04
c1coc(-c2nnc([C@H]3CCN(Cc4ccc5c(c4)OCO5)C3)o2)c1 | -6.68
O=C1CO[C@H]2CN(Cc3ccc(C(F)(F)F)cc3)C[C@H]2N1 | -2.56
CC(C)(C)c1coc([C@@H]2COCCN2Cc2c[nH]cn2)n1 | 2.66
CN(C)[C@@H]1CO[C@H](CNC(=O)c2cccs2)[C@H]1O | -8.01
CC(=O)N1CCC(N[C@@H]2CO[C@H](CNC(=O)c3cccs3)[C@H]2O)CC1 | 4.51
O=C(NC[C@H]1OC[C@@H](NCc2ccccn2)[C@@H]1O)N1CCOCC1 | -10.1

SMILES | cytotoxicity at 70.5 h [%]
O=C1COC[C@H]([C@H](O)c2ccc(NC(=O)c3cccnc3)cc2)N1 | -5.64
O[C@@H]1C[C@@H](c2nc(-c3ccc(OC(F)(F)F)cc3)no2)N(CC2CC2)C1 | -4.09
CCNC(=O)NC[C@@H]1C=C(C)[C@H](CC(=O)NCCN(C)C)C[C@H]1C(C)C | -0.736
Cn1cncc1-c1nnc([C@H]2CCN(Cc3cccnc3)C2)o1 | -2.71
Cn1ccnc1CN1C(=O)CO[C@H]2CN(CCCc3ccccc3)C[C@H]21 | -1.68
CN(C)[C@@H]1CO[C@H](CNC(=O)c2ccccc2)[C@H]1O | -8.77
CC(=O)N1CCC(N2CCN3C(=O)N(Cc4ccccn4)C[C@H]3C2)CC1 | -1.05
N#Cc1ccc(C(=O)N2CCOC[C@H](Oc3cnccn3)C2)cc1 | -0.682
COc1ccc(O[C@H]2COCCN(Cc3cccc4c3OCO4)C2)cc1 | 3.63
CCNC(=O)NC[C@H]1Cn2c(-c3ccccc3)cnc2CO1 | -3.79
FC(F)(F)Oc1cccc(CNC[C@H]2Cn3ccnc3CO2)c1 | 0.704
CC(C)N1CCOC[C@H]1c1nc(-c2ccncc2)c[nH]1 | -1.74
c1cc(-c2c[nH]c([C@@H]3COCCN3CC3CC3)n2)ccn1 | -1.9
COC(=O)[C@H]1CN(S(C)(=O)=O)CCN1S(C)(=O)=O | -2.09
CN(C)[C@@H]1CO[C@H](CNC(=O)C2CCCC2)[C@H]1O | 6.3
CC(C)N[C@@H]1CO[C@H](CNC(=O)c2cccs2)[C@H]1O | 1.83
CC[C@H]1CN(C(=O)c2cccnc2)CC[C@H]1CC(=O)NC1CC1 | -4.36
COCC(=O)N1CCN(C(=O)c2cccs2)C[C@H]1C(=O)OC | 1.41
O=C(O)C[C@@H]1CCN(C(=O)C2CCCC2)C[C@@H]1CCN1CCCCC1 | -1.16
CC(=O)N1CC[C@H]2CC(=O)N(C3CCCCC3)CC[C@H]2C1 | -2.68
CC(C)(O)c1cn(C[C@H]2C[C@@H]3CCN2C[C@@H]3C(=O)N2CCOCC2)nn1 | -1.36
CC[C@H]1CN2CC[C@H]1C[C@@H]2CNC(=O)Nc1cccc(C(F)(F)F)c1 | -3.6

SMILES | cytotoxicity at 70.5 h [%]
COC(=O)[C@@H]1CN(C(=O)NC(C)C)CCN1S(=O)(=O)c1ccccc1 | -2.94
Cn1nc(-c2cccs2)cc1[C@H]1CN2CC[C@H]1C[C@@H]2CNS(C)(=O)=O | -6.43
Cc1oncc1C(=O)N1CC2CC1(C(=O)N1CCCC1)C2 | 8.06
CN(C)C(=O)C1CCC2(CCN(Cc3ccc4ccccc4n3)CC2)O1 (configuration not stated) | -8.67
c1coc(CN2CCC3(CC2)COC(COCC2CCOCC2)C3)c1 (configuration not stated) | -12.1
CCN1C[C@H]2CCN(Cc3ccncc3)C(=O)[C@@H]2C1 | -12
CN(C)C(=O)CN1CCC2(CCN(C(=O)N3CCCC3)CC2)C1=O | -3.29
CN(C)C(=O)CN1CCC2(CCN(S(C)(=O)=O)CC2)C1=O | -0.161
CCN1C(=O)CC[C@]12CC[C@@H](NC(=O)c1cnccn1)CC2 | 12.9
Cc1cccc(CN2CCC23CCCNC3)n1 (configuration not stated) | -9.59
CS(=O)(=O)N1C[C@H]2C[C@H](C(=O)N3CCOCC3)[C@@H](C1)O2 | -6.47
O=C1CCC2(CCCN(C(=O)NCc3ccccc3)CC2)N1 (configuration not stated) | -8.58
O=C(NC1CC1)N1CC[C@H]2[C@H]1CCN2c1ncccn1 | -6.35
CCC(NC(=O)c1c(C(=O)O)cnn1C)c1ccc(C)cc1C (configuration not stated) | -3.68
CC(C)c1cc(CSCCC(=O)O)no1 | -4.33
Cc1c2c(C(F)F)cc(SCC(=O)O)nc2nn1C | -2.86
CCn1cc(N)c(-c2nnc3n2CCC3)n1 | 13.1
CCOc1ccccc1C(=O)Nn1c(C)cc(C)cc1=O | -6.5
Cn1ncc(NC(=O)c2noc3c2CCCC3)c1C(N)=O | -5.51
CCN(CC)C1COc2c(cc(Br)c(C)c2Br)C1=O (configuration not stated) | -7.72
CCN(CC)C1COc2ccc(Br)cc2C1=O (configuration not stated) | -5.6
CCc1c(O)n(C(C)CC)c(SCC(=O)c2ccccc2)nc1=O (configuration not stated) | -8.65

SMILES | cytotoxicity at 70.5 h [%]
Cn1cc(C(=O)NC(Cn2cccn2)C(C)(C)C)cn1 (configuration not stated) | 2.11
Cc1cn(Cc2ccc(F)c(F)c2)nc1N | 19.5
O=C(CSc1nccc(-c2ccc3c(c2)OCO3)n1)N1CCOCC1 | -1.22
CCn1cc(-c2cc(C(F)F)n3nc(CCC(=O)O)nc3n2)cn1 | -2.48
Cc1cn(Cc2ccc(F)cc2)nc1N | -1.4
Cc1ccc(Cn2cc(C)c(N)n2)cc1 | 22.1
CCC1(c2ccc(NS(=O)(=O)N(C)C)cc2)CCC(=O)NC1=O (configuration not stated) | -2.76
Cn1nnnc1SCC1COc2ccccc2O1 (configuration not stated) | 0.146
O=C1c2cc(Br)cc(Br)c2OCC1(CN1CCCC1)CN1CCCC1 | -1.34
CC(=O)c1ccc(OCC(C)O)cc1O (configuration not stated) | 5.87
CCOC(=O)COc1ccc(C(C)=O)c(O)c1 | 28.9
Cn1c(=O)c2cc(C(=O)NCCOCC(F)(F)F)ccc2n(C)c1=O | 25.9
COc1cc(CNc2cnn(CC(F)F)c2)ccc1O | 26.6
COCc1cc(CNc2cnn(CC(F)F)c2)ccc1OC | 1.97
COc1cccc(CNc2cnn(CC(F)F)c2)c1 | 3.29
COc1ccc(CNc2cnn(CC(F)F)c2)cc1 | -0.452
CCn1cc(CNCc2ccc(C(=O)OC)cc2)c(C)n1 | -0.911
COc1ccc(CNCc2cn(C)nc2C)cc1 | -2.32
COC(=O)N1CC(C)=C(C)CN1C(=O)Nc1ccc(Cl)c(Cl)c1 | 4.31
Cc1cc(-n2cncn2)n2ncnc2n1 | -2.11
NC(=O)c1c[nH]nc1NC(=O)c1ccc(Cl)cc1 | -3.88
Cc1c(O)oc(-c2ccc(Br)cc2)nc1=O | 53.6

SMILES | cytotoxicity at 70.5 h [%]
CCn1cc(S(=O)(=O)N(C)Cc2c(Br)cnn2CC)c(C)n1 | 1.71
CCCn1ncc2c(C(=O)Nc3n[nH]c(SC)n3)cc(C3CC3)nc21 | 5.71
CNc1cncc(C2CCCN2C(=O)c2ccc3oc(=O)n(C)c3c2)n1 (configuration not stated) | 17.9
CNC(=O)[C@@H](c1ccccc1F)N1CCC[C@H]1C(=O)NC1CCCC1 | -5.2
CNC(=O)C1(N2CCC[C@H]2C(=O)NC2CC2)CCCCC1 | -3.89
CNC(=O)[C@@H](c1ccccc1OC)N1CCC[C@H]1C(=O)NC1CC1 | -1.71
CNC(=O)[C@@H](C1CCCCC1)N1CCC[C@H]1C(=O)N(C)CCN(C)C | -4.67
CNC(=O)[C@@H](CC(C)C)N1CCC[C@H]1C(=O)N(C)Cc1cccnc1 | -6.49
CNC(=O)[C@@H](c1ccccc1OC)N1CCC[C@H]1C(=O)NCCN(C)C | -5.36
Cc1nc(C)c(CNC[C@@]2(COc3cccnc3)C[C@@H](O)[C@@H](O)C2)s1 | -4.67
CC(C)NC(=O)CC1CC2(CCN(CC3CC3)CC2)Oc2ccccc21 (configuration not stated) | 15.7
Cn1cccc1C(=O)N1C[C@H]2CN(Cc3cccs3)C[C@H]2C1 | -4.47
CO[C@@H]1CCN(C(=O)c2ccsc2)[C@@H]2CN(CC3CC3)C[C@@H]21 | -4.96
CNC(=O)CC1CC2(CCN(CC3CC3)CC2)Oc2ccccc21 (configuration not stated) | -6.72
CN1C(=O)CC(c2cnn(C)c2)C12CCN(CC1CCOCC1)CC2 (configuration not stated) | -9.88
CO[C@H]1CCN(C(=O)c2ccsc2)[C@@H]2CN(CC3CC3)C[C@H]12 | -7.14
COCC(=O)N1CCC2(CC1)C(=O)N(Cc1cccnc1)CCN2C | 28.3
CCC(=O)N1CCC2(CC1)C(=O)N(Cc1cccnc1)CCN2C | -3.61
O=C1Nc2ccccc2C12CCN(Cc1ccccn1)CC2 | 0.291
